Series [1] in a line: Toxicity in Kunming mouse assessed as induction of abnormal behaviors at 2000 mg/kg, ig measured 2 hrs post dose and then measured every 48 hrs for 14 days. It is filed as organism-based. The following applies: in vivo, po.
For series [2], the system named is Human immunodeficiency virus 1. In words: Antiviral activity against HIV1 3B infected in human MT4 cells grown under 30 passages in presence of (E)-4-((4-((4-(4-(2-Cyanovinyl)-2,6-dimethylphenoxy)thieno[2,3- d]pyrimidin-2-yl)amino)piperidin-1-yl)methyl)benzenesulfonamide assessed as protection against virus-induced cytopathic effect incubated for 5 days by MTT assay. It counts as functional, organism-based. The following applies: Human immunodeficiency virus 1, 3B, MT4, 120 h. Background: Damage to the host cells serves as the signal in cytopathic effect assays.

Series [3] addresses Human immunodeficiency virus type 1 reverse transcriptase (Human immunodeficiency virus 1, UniProt Q72547, Y188L). The series is described as follows: Inhibition of HIV1 RT Y188L mutant in presence of reconstituted template and viral nucleotides [digoxigenin (DIG)-dUTP, biotin-dUTP and dTTP] incubated for 1 hr by ELISA method.
The target of series [4] is Human immunodeficiency virus type 1 reverse transcriptase (Human immunodeficiency virus 1, UniProt Q72547, K103N/Y181C). In words: Inhibition of HIV1 RT K103N/Y181C mutant in presence of reconstituted template and viral nucleotides [digoxigenin (DIG)-dUTP, biotin-dUTP and dTTP] incubated for 1 hr by ELISA method. Background: An ELISA detects its analyte on a solid surface through an enzyme-linked reagent.

Series [5] relates to Human immunodeficiency virus 1. It is filed as functional, organism-based. The following applies: Human immunodeficiency virus 1, MT4, 120 h.
Series [6] has as its system Human immunodeficiency virus 1. In words: Antiviral activity against HIV1 3B infected in human MT4 cells grown under 30 passages in absence of test compound assessed as protection against virus-induced cytopathic effect incubated for 5 days by MTT assay. The settings on record: Human immunodeficiency virus 1, 3B, MT4, 120 h. It counts as functional, organism-based.
The subject of series [7] is Human immunodeficiency virus 1. The series is described as follows: Antiviral activity against HIV1 3B infected in human MT4 cells grown under 30 passages in presence of 4-[[4-[[4-[4-[2-cyanovinyl]-2,6-dimethylphenoxy]thieno[3,2-d]pyrimidin-2-yl]amino]-1-piperidyl]methyl]benzenesulfonamide assessed as protection against virus-induced cytopathic effect incubated for 5 days by MTT assay. The following applies: Human immunodeficiency virus 1, 3B, MT4, 120 h. It is filed as functional, organism-based.

Series [8] has as its system Human immunodeficiency virus 1. In words: Antiviral activity against HIV1 expressing RT E138K mutant infected in human MT4 cells assessed as protection against virus-induced cytopathic effect incubated for 5 days by MTT assay. It is filed as functional, organism-based. The settings on record: Human immunodeficiency virus 1, MT4, 120 h.
In series [9] the target is Human immunodeficiency virus type 1 reverse transcriptase (Human immunodeficiency virus 1, UniProt Q72547, Y181C). In words: Inhibition of HIV1 RT Y181C mutant in presence of reconstituted template and viral nucleotides [digoxigenin (DIG)-dUTP, biotin-dUTP and dTTP] incubated for 1 hr by ELISA method.
The nature of series [10]: Toxicity in Kunming mouse assessed as induction of mortality at 2000 mg/kg, ig measured 2 hrs post dose and then measured every 48 hrs for 14 days. It is filed as organism-based. The settings on record: in vivo, po.
For series [11], the target named is Human immunodeficiency virus type 1 reverse transcriptase (Human immunodeficiency virus 1, UniProt Q72547). The series is described as follows: Inhibition of HIV1 RT in presence of reconstituted template and viral nucleotides [digoxigenin (DIG)-dUTP, biotin-dUTP and dTTP] incubated for 1 hr by ELISA method.
For series [12], the system named is Human immunodeficiency virus 1. In words: Antiviral activity against HIV1 expressing RT L100I mutant infected in human MT4 cells assessed as protection against virus-induced cytopathic effect incubated for 5 days by MTT assay. It is filed as functional, organism-based. The following applies: Human immunodeficiency virus 1, MT4, 120 h.
A short description of series [13]: Toxicity in Kunming mouse assessed as induction of toxic symptoms at 2000 mg/kg, ig measured 2 hrs post dose and then measured every 48 hrs for 14 days. It is filed as organism-based. The settings on record: in vivo, po.
For series [14], the system named is Human immunodeficiency virus 1. The series is described as follows: Antiviral activity against HIV1 expressing RT K103N mutant infected in human MT4 cells assessed as protection against virus-induced cytopathic effect incubated for 5 days by MTT assay. It counts as functional, organism-based. The settings on record: Human immunodeficiency virus 1, MT4, 120 h.

For series [15], the system named is Human immunodeficiency virus 1. The series is described as follows: Antiviral activity against HIV1 expressing RT Y188L mutant infected in human MT4 cells assessed as protection against virus-induced cytopathic effect incubated for 5 days by MTT assay. It is filed as functional, organism-based. The settings on record: Human immunodeficiency virus 1, MT4, 120 h.

Series [16] has as its target Human immunodeficiency virus type 1 reverse transcriptase (Human immunodeficiency virus 1, UniProt Q72547, E138K). In words: Inhibition of HIV1 RT E138K mutant in presence of reconstituted template and viral nucleotides [digoxigenin (DIG)-dUTP, biotin-dUTP and dTTP] incubated for 1 hr by ELISA method.
Series [17] concerns Human immunodeficiency virus 1. In words: Antiviral activity against HIV1 3B infected in human MT4 cells grown under 30 passages in presence of 4-[[4-[[4-(4-cyano-2,6-dimethylphenoxy)thieno[3,2-d]pyrimidin-2-yl]amino]-1-piperidyl]methyl]benzenesulfonamide assessed as protection against virus-induced cytopathic effect incubated for 5 days by MTT assay. It counts as functional, organism-based. The settings on record: Human immunodeficiency virus 1, 3B, MT4, 120 h.

In series [18] the test system is Human immunodeficiency virus 1. In words: Antiviral activity against HIV1 expressing RT Y181C mutant infected in human MT4 cells assessed as protection against virus-induced cytopathic effect incubated for 5 days by MTT assay. The following applies: Human immunodeficiency virus 1, MT4, 120 h. It is filed as functional, organism-based.
Series [19] concerns the target Human immunodeficiency virus type 1 reverse transcriptase (Human immunodeficiency virus 1, UniProt Q72547, K103N). In words: Inhibition of HIV1 RT K103N mutant in presence of reconstituted template and viral nucleotides [digoxigenin (DIG)-dUTP, biotin-dUTP and dTTP] incubated for 1 hr by ELISA method.
The subject of series [20] is Human immunodeficiency virus 1. In words: Antiviral activity against HIV1 3B infected in human MT4 cells assessed as protection against virus-induced cytopathic effect incubated for 5 days by MTT assay. The settings on record: Human immunodeficiency virus 1, 3B, MT4, 120 h. It counts as functional, organism-based.
The test system of series [21] is Human immunodeficiency virus 1. In words: Antiviral activity against HIV1 RES056 infected in human MT4 cells assessed as protection against virus-induced cytopathic effect incubated for 5 days by MTT assay. The settings on record: Human immunodeficiency virus 1, RES056, MT4, 120 h. It counts as functional, organism-based.
Series [22] can be described thus: Toxicity in Kunming mouse assessed as induction of body weight changes at 2000 mg/kg, ig measured 2 hrs post dose and then measured every 48 hrs for 14 days. The settings on record: in vivo, po. It counts as organism-based.

In general, EC50 refers to the concentration giving half of the maximal effect. In general, IC50 refers to the concentration at which inhibition is half-maximal.

On to `Cc1cc(/C=C/C#N)cc(C)c1Oc1nc(NC2CCN(Cc3ccc(S(N)(=O)=O)cc3)CC2)nc2sccc12`, for which the Activity result in series [1], in series [10], in series [13] and in series [22] was “Non-Toxic” throughout. Also, the EC50 in series [2] came to 3.6 µM; in [5], 4.81 nM; in series [6], 4.1 nM; in series [7], 870 nM; in [8], 6.7 nM; in series [12], 2.05 nM. Also, the EC50 in [14] came out at 2.34 nM; in [15] it was 7.59 nM; in series [17], 1780 nM; in series [18], 6.57 nM; in [20], 3.24 nM; in series [21], 6.45 nM. Further, the IC50 in series [3] is 452 nM; in series [4] it was 120 nM; in series [9], 141 nM; in series [11], 114 nM; in series [16], 374 nM; in series [19], 222 nM.

For the origin of these results see ChEMBL document CHEMBL4354878, “Structure-Based Bioisosterism Yields HIV-1 NNRTIs with Improved Drug-Resistance Profiles and Favorable Pharmacokinetic Properties” (J Med Chem, 2020).
